Assay results taken from ChEMBL document CHEMBL1201862, “PubChem BioAssay data set” (2004).
One block for each compound: values may come before it. Active and inactive are the calls of the source.

What was measured:
Mucolipin-3 = Mucolipin-3 (Homo sapiens, UniProt Q8TDD5); test: Dose response cell-based high-throughput screening assay for agonists of the transient receptor potential channel ML3 (TRPML3). [Related pubchem assays: 1526, 1424, 1448 ]; format: functional
Ion channel NompC = Ion channel NompC (Danio rerio, UniProt Q7T1G6); test: Fluorescence counterscreen assay for TRPML3 agonists: dose response cell-based high-throughput screening assay to identify agonists of the transient receptor potential channel N1 (TRPN1). [Related pubchem assays: 1526, 1424, 1448 ]; format: functional
Ion channel NompC, sequence (Q7T1G6 whole entry): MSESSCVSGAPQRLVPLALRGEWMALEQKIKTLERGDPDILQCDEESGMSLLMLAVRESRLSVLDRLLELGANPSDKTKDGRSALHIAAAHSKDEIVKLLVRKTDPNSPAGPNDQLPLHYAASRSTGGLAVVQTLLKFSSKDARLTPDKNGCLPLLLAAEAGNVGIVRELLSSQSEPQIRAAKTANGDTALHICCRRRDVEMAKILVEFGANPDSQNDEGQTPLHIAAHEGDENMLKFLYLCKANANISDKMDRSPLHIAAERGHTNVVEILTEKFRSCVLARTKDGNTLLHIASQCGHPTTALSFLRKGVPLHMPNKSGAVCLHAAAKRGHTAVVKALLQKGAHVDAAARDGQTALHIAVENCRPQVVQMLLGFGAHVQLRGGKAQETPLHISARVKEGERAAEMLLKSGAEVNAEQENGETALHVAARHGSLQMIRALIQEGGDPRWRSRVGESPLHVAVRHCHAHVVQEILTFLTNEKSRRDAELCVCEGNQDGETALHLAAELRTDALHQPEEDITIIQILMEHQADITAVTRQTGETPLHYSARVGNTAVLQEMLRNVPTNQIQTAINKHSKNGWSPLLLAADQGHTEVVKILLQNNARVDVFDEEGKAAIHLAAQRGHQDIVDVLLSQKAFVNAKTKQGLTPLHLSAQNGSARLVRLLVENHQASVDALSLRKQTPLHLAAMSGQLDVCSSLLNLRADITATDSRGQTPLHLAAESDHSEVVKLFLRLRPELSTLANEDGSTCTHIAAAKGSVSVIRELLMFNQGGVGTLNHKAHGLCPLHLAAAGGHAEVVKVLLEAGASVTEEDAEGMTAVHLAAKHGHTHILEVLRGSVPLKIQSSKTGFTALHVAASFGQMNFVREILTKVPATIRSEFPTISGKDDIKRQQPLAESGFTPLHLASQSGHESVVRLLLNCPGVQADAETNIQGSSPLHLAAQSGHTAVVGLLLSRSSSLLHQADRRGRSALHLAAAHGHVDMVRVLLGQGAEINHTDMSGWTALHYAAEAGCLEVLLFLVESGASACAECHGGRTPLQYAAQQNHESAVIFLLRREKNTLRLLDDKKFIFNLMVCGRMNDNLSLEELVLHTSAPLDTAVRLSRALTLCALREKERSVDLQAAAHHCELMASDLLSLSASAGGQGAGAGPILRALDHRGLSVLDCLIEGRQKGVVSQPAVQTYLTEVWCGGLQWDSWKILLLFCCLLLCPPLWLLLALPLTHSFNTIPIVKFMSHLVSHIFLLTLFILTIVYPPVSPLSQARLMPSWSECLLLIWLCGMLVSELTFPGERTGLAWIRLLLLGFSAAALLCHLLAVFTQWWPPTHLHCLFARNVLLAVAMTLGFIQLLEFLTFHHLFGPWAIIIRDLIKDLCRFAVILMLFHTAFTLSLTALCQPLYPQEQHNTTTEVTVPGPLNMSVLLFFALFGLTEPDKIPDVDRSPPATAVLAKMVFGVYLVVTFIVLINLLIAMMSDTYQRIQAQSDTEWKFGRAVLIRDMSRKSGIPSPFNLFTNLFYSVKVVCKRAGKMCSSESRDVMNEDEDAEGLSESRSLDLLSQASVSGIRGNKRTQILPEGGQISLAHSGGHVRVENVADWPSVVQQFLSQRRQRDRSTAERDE

[1] = target: T1, Corticotropin-releasing factor receptor 2/Corticotropin-releasing factor-binding protein (Homo sapiens, UniProt P24387+Q13324); test: activators of CRF receptor 2 with binding protein – uHTS hits, confirmation (AID 602473); format: functional; details: read-out: EC50_Mean
T1 sequence (Q13324 whole entry): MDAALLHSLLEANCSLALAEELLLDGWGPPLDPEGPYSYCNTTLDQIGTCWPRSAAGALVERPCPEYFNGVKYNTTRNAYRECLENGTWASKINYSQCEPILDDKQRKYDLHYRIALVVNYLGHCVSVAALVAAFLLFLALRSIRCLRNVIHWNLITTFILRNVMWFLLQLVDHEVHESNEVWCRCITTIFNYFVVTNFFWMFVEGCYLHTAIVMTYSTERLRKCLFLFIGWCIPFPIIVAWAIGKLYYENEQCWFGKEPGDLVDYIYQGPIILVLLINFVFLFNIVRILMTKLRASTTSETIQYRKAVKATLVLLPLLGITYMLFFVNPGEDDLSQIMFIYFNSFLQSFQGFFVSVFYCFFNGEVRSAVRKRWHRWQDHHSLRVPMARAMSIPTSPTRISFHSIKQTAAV
T1 sequence (P24387 whole entry): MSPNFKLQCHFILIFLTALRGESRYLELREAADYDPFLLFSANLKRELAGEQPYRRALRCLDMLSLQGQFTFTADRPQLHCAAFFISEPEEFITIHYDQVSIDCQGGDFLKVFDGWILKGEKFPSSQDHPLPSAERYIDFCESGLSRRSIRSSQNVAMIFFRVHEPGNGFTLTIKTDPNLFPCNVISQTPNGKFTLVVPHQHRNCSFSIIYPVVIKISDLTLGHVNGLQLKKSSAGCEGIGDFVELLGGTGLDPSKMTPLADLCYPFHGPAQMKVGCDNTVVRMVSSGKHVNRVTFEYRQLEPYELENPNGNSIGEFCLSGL

[2] = target: Induced myeloid leukemia cell differentiation protein Mcl-1 (Homo sapiens, UniProt Q07820); format: functional
Induced myeloid leukemia cell differentiation protein Mcl-1, sequence (Q07820 whole entry): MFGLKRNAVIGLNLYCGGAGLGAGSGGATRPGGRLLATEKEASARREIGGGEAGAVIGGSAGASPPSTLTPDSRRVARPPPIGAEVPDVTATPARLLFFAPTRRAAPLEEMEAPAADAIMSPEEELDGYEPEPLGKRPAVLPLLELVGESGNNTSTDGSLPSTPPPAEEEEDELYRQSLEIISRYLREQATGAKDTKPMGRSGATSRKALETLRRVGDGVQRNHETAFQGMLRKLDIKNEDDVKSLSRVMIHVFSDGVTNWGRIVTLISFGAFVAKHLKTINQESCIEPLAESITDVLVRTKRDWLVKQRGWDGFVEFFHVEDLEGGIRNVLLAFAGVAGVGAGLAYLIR

HeLa = test: Cytotoxicity counterscreen assay for transcriptional activators of heat shock protein 70 (Hsp70). [Related pubchem assays: 1203, 1252 ]; format: functional; details: Homo sapiens;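 also: cells exposed to compound for 16 hours before readout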
[3] = target: T2, Neuropeptide Y receptor type 1 (Homo sapiens, UniProt P25929); format: functional;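 also: HEK293 cells with a CNG channel challenged with NPY then isoproterenol; potency as antagonist that reverses NPY suppression of cAMP signal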
T2 sequence (P25929 whole entry): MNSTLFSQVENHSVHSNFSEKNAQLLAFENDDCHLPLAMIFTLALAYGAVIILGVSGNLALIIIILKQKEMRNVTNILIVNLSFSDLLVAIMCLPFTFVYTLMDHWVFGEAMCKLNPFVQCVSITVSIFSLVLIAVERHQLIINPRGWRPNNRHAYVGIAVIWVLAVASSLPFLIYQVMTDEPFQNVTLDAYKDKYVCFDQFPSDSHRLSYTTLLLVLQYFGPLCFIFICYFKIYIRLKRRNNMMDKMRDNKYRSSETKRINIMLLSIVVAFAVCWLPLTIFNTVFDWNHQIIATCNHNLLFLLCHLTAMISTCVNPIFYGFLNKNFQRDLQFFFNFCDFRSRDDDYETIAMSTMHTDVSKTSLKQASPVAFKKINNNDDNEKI

[4] = target: T3, Neuropeptide Y receptor type 2 (Homo sapiens, UniProt P49146); format: functional, cell-based;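 also: HEK293 cells expressing the receptor and a CNG channel; stimulus was NPY near EC95 followed by isoproterenol to raise cAMP; antagonist potency measured as restoring cAMP signal that NPY suppresses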
T3 sequence (P49146 whole entry): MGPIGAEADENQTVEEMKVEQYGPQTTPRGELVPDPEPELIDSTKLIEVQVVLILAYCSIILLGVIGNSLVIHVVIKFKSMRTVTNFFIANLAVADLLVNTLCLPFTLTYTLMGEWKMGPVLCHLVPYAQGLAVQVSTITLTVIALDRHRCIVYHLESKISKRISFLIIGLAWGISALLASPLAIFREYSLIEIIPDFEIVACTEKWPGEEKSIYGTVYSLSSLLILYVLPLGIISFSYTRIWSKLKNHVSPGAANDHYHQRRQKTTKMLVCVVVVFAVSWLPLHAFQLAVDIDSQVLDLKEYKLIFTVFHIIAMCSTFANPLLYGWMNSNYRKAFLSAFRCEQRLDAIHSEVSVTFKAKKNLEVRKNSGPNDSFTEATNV

Mucolipin-3, sequence (Q8TDD5 whole entry): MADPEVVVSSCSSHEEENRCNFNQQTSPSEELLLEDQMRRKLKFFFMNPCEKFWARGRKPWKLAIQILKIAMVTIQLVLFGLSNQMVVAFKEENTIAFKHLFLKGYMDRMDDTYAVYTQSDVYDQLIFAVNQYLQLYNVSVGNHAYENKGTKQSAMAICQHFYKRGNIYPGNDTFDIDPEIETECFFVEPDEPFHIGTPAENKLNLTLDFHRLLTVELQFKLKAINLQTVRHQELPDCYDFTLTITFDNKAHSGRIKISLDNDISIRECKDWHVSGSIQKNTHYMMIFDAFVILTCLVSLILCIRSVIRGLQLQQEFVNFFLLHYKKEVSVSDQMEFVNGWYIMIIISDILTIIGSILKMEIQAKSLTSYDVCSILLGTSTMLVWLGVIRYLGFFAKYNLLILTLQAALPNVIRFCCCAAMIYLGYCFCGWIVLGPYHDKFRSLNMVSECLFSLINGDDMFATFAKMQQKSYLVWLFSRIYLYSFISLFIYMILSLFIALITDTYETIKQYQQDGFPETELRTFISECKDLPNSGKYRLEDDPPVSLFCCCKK

EC50 (Mucolipin-3): > 29.9 µM (not active)
EC50 (Ion channel NompC): > 29.9 µM (not active)
EC50 [1]: > 53 µM (inactive)
SMILES: Cc1cc(C)cc(N2C(=O)CSC2c2cccs2)c1 (configuration not stated)

IC50 [2]: 6.18 µM (not active)
SMILES: COC(=O)Nc1ccc(S(=O)(=O)NCc2ccccn2)cc1
CC50 (HeLa): > 99 µM (not active)

IC50 [3]: 9.35 µM (active)
IC50 [4]: 6.02 µM (active)
SMILES: COc1ccc(-c2nnc3sc(C(C)N4C(=O)c5ccccc5C4=O)nn23)cc1 (configuration not stated)
